Measured values reported in publication PMC3262960 (ACS Chemical Biology, 2011).
Where two headings read alike, the source gives them in different places.

Assays:
[1] = animal models of RA, UC, and neuron degeneration; cited from earlier work
[2] = target: T1, PAD1 (Homo sapiens, UniProt Q9ULC6); assay: PAD1 inhibition, IC50 determination; assay type: biochemical; conditions: read-out: IC50 PAD1
T1 sequence (Q9ULC6 1-663): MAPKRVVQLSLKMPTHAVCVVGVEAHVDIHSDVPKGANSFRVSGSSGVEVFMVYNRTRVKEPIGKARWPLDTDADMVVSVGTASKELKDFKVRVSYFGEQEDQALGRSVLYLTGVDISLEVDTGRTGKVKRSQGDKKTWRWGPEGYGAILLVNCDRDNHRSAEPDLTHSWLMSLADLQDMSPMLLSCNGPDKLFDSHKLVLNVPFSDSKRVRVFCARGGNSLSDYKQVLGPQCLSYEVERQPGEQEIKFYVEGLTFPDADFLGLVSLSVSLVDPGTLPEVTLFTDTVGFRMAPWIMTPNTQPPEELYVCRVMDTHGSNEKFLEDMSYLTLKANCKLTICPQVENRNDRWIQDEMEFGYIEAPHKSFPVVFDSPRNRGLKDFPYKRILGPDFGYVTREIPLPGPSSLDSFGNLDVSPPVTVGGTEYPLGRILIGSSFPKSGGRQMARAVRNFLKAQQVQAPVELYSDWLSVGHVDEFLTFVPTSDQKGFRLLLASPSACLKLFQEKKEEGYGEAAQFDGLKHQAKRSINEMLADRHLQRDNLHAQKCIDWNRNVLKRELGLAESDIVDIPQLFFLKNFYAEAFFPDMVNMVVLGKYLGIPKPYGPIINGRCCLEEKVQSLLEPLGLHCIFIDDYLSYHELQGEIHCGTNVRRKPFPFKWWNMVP

[3] = target: T2, PAD2 (Homo sapiens, UniProt Q9Y2J8); assay: PAD2 inhibition, IC50 determination; assay type: biochemical; conditions: read-out: IC50 PAD2
T2 sequence (Q9Y2J8 whole entry): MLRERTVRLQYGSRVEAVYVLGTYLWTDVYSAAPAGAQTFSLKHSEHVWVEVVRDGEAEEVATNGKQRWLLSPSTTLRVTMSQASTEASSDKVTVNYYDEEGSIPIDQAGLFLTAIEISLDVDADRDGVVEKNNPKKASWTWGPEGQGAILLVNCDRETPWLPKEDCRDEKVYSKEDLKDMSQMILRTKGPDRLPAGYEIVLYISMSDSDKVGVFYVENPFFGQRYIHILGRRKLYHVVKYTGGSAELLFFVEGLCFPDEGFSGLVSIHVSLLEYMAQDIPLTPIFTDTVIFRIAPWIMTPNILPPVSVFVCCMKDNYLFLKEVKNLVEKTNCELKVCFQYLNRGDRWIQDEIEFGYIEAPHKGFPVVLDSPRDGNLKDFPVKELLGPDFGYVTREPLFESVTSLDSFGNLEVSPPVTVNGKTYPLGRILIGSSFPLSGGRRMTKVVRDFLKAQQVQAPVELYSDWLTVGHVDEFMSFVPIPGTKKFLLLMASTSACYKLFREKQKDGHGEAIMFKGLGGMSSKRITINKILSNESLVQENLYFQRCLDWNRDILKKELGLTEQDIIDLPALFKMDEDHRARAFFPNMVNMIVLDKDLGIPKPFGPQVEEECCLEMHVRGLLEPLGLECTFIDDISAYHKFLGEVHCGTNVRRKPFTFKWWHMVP

[4] = target: T3, PAD3 (Homo sapiens, UniProt Q9ULW8); assay: PAD3 inhibition, IC50 determination; assay type: biochemical; conditions: read-out: IC50 PAD3
T3 sequence (Q9ULW8 1-664): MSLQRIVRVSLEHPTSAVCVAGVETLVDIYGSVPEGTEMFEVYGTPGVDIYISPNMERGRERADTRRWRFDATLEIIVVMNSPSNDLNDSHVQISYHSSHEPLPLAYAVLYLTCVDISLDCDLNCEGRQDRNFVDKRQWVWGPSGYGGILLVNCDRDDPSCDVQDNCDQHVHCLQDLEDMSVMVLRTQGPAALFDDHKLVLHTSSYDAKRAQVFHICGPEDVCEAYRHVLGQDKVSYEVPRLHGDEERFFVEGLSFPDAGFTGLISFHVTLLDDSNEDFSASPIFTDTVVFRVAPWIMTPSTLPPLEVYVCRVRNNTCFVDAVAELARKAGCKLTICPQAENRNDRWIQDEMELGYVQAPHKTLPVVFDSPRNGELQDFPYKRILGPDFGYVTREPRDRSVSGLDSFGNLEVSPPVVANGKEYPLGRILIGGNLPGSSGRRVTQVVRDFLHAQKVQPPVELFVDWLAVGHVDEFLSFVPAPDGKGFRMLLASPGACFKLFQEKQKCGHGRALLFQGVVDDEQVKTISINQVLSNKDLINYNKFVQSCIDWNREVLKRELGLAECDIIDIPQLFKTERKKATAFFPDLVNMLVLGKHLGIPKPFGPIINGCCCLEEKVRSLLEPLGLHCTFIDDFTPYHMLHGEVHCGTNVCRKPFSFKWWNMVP

[5] = target: T4, PAD4 (Homo sapiens, UniProt Q9UM07); assay: Dialysis of PAD4•inactivator complex; assay type: biochemical; conditions: excess inhibitor, 20 h of dialysis
T4 sequence (Q9UM07 whole entry): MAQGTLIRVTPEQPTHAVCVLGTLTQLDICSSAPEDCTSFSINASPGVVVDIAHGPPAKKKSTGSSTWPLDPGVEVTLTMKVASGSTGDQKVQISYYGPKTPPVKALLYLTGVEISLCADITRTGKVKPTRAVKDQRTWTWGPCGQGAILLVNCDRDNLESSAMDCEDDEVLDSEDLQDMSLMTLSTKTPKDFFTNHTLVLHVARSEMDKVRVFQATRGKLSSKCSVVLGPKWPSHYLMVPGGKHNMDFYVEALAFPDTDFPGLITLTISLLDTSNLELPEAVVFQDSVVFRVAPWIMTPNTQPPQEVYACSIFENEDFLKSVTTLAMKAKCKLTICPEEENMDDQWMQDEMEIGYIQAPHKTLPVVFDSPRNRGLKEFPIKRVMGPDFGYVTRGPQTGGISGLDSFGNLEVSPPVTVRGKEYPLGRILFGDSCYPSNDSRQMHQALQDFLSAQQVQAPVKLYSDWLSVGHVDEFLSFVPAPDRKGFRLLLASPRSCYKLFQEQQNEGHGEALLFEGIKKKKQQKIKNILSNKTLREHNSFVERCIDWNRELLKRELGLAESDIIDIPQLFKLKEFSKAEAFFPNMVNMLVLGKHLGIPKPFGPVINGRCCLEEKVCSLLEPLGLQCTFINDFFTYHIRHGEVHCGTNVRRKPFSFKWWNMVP

[6] = target: T4, PAD4; assay: Substrate protection experiments; assay type: biochemical; conditions: two different concentrations of substrate
[7] = tested on: PAD4 Q346A mutant; assay: IC50 with PAD4 Q346A mutant; conditions: relative to wild type PAD4
[8] = tested on: PAD4 R374Q mutant; assay: IC50 with PAD4 R374Q mutant; conditions: relative to wild type PAD4
[9] = tested on: PAD4 R639Q mutant; assay: IC50 with PAD4 R639Q mutant; conditions: relative to wild type PAD4
[10] = target: T4, PAD4; assay: PAD4 inhibition, IC50 determination
[11] = target: T1, PAD1; conditions: read-out: IC50 PAD1; first generation inhibitors; cited from earlier work
[12] = target: T3, PAD3; conditions: read-out: IC50 PAD3; first generation inhibitors; cited from earlier work
[13] = target: T1, PAD1; assay: Substrate activity with PAD1
[14] = target: T2, PAD2; assay: Substrate activity with PAD2
[15] = target: T3, PAD3; assay: Substrate activity with PAD3
[16] = target: T4, PAD4; assay: Substrate activity with PAD4

Compound: N=C(CCl)NCCC[C@H](NC(=O)c1ccccc1)C(N)=O [Cl-amidine, N-alpha-benzoyl-N5-(2-chloro-1-iminoethyl)-L-ornithine amide]
- effect on disease severity in animal models [1]: reduces disease severity

Compound: CC(=O)N[C@H](C(=O)N[C@@H](CC(=O)O)C(=O)N[C@@H](CCCN=C(N)CF)C(N)=O)[C@@H](C)O [TDFA, Thr-Asp-F-amidine]
- IC50 [2]: 8.5 ± 0.8 µM
- IC50 [3]: 71 ± 4.4 µM
- IC50 [4]: 26 ± 7.4 µM
- recovery of PAD4 activity after dialysis [5]: no recovery of activity
- rates of inactivation at the higher concentration of substrate [6]: considerably lower
- increase of IC50 with Q346A mutant [7]: 1.9 fold
- increase of IC50 with R374Q mutant [8]: 5.2 fold
- increase of IC50 with R639Q mutant [9]: 2.9 fold
- selectivity for PAD4 relative to the other PADs, based on IC50 values [10]: ≥ 4 fold
- enhancement in potency relative to F-amidine (IC50) ([10]; PAD4): ~ 10 fold
- IC50 ([10]; read-out: IC50 PAD4): 2.3 ± 0.2 µM

Compound: NC(=O)[C@H](CCCN=C(N)CF)NC(=O)c1ccccc1 [F-amidine]
- IC50 [11]: 30 ± 1.3 µM
- IC50 [12]: ≥ 350 µM

Compound: Ac-Threonine-Aspartate-Arginine-NH2 [Ac-TDR-NH2]
- substrate quality for PAD1 [13]: excellent substrate
- substrate quality for PAD2 [14]: relatively poor
- substrate quality for PAD3 [15]: relatively poor
- substrate quality for PAD4 [16]: excellent substrate
